System: diamondback moth (Plutella xylostella)
Assay: whole plant or invertebrate
Type: in vivo
Protocol: The pest control protection afforded by the mixtures or compositions is not limited, however, to these species. The analysis of synergism or antagonism between the mixtures or compositions was determined using Colby's equation. The average % mortality data for the test compounds alone were inserted into the Colby's equation. If the observed average % mortality was higher than “p”, the expected % mortality, the mixture or composition had synergistic effects. If the observed average % mortality was equal to or lower than the expected mortality, the mixture or composition either had no synergistic effect or an antagonistic effect. In these tests, Compound 1 is the compound of Formula 1.
For evaluating control of diamondback moth (Plutella xylostella), cabbage (var. Stonehead) plants were grown in Metromix potting soil in 10-cm pots in aluminum trays to test size (28 days, 3-4 full leaves) the plants were sprayed to the point of runoff using the turntable sprayer as described in Test I. Test compounds were formulated and sprayed on test plants as described for Test I. After drying for 2 hours, the treated leaves were excised and infested with one cabbage looper per cell and covered. The test units were placed on trays and put in a growth chamber at 25° C. and 60% relative humidity for 4 days.

Work on `CNC(=O)c1cc(C#N)cc(C)c1NC(=O)c1cc(Br)nn1-c1ncccc1Cl` [Compound 1, 3-bromo-N-[4-cyano-2-methyl-6-[(methylamino)carbonyl]phenyl]-1-(3-chloro-2-pyridinyl)-1H-pyrazole-5-carboxamide] yielded a mortality at 0.005 ppm (Plutella xylostella, in Brassica oleracea, rate 0.005 ppm, read-out: % mortality (obs)) of 86%, a mortality at 0.02 ppm (Plutella xylostella, in Brassica oleracea, rate 0.02 ppm, read-out: % mortality (obs)) of 87% and a mortality at 0.08 ppm (Plutella xylostella, in Brassica oleracea, rate 0.08 ppm, read-out: % mortality (obs)) of 94%. The “% mortality” value (rate 0.02) was 83% and the “% mortality” value (rate 0.08) was 90%.

Reference: patent publication US20090104145A1, “Mixtures of Anthranilamide Invertebrate Pest Control Agents” (priority 2004, published 2009)
